Test: xn = mol fraction of the nth substance listed
Conditions: 101 kPa

CC(=O)Oc1ccccc1C(=O)O + CC#N + CCCCCC[n+]1ccn(C)c1.[Br-]
viscosity [mPa·s]
Conditions	288.15 K	298.15 K	308.15 K	318.15 K
x1 = 0.001647, x3 = 0	0.394	0.349	0.316	0.292
x1 = 0.001682, x3 = 0.004167	0.408	0.37	0.336	0.309
x1 = 0.001814, x3 = 0.0117	0.434	0.393	0.372	0.343
x1 = 0.001864, x3 = 0.008116	0.431	0.388	0.353	0.324
x1 = 0.00335, x3 = 0.00416	0.412	0.373	0.34	0.313
x1 = 0.003412, x3 = 0	0.398	0.353	0.319	0.295
x1 = 0.003448, x3 = 0.01168	0.437	0.396	0.376	0.346
x1 = 0.003521, x3 = 0.008102	0.435	0.391	0.356	0.327
x1 = 0.004495, x3 = 0	0.402	0.355	0.322	0.297
x1 = 0.004647, x3 = 0.004154	0.416	0.376	0.343	0.315
x1 = 0.004832, x3 = 0.01167	0.441	0.399	0.38	0.349
x1 = 0.004834, x3 = 0.008092	0.438	0.395	0.359	0.33
x1 = 0.00569, x3 = 0	0.405	0.358	0.325	0.3
x1 = 0.005813, x3 = 0.004149	0.42	0.38	0.346	0.317
x1 = 0.005963, x3 = 0.008083	0.441	0.398	0.363	0.333
x1 = 0.006109, x3 = 0.01165	0.444	0.402	0.383	0.352
x1 = 0.006963, x3 = 0	0.408	0.362	0.328	0.303
x1 = 0.007083, x3 = 0.004144	0.423	0.383	0.349	0.32
x1 = 0.007249, x3 = 0.008072	0.444	0.401	0.366	0.335
x1 = 0.007314, x3 = 0.01164	0.448	0.406	0.386	0.355
x1 = 0.00845, x3 = 0	0.412	0.365	0.331	0.306
x1 = 0.008753, x3 = 0.004137	0.428	0.387	0.354	0.324
x1 = 0.008914, x3 = 0.008059	0.448	0.405	0.369	0.339
x1 = 0.00934, x2 = 0.979	0.452	0.41	0.39	0.359
x1 = 0.009969, x3 = 0	0.416	0.369	0.334	0.309
x1 = 0.009979, x3 = 0.004132	0.432	0.39	0.356	0.327
x1 = 0.01021, x2 = 0.9782	0.455	0.412	0.392	0.361
x1 = 0.01031, x3 = 0.008047	0.451	0.408	0.372	0.342
x1 = 0.01098, x3 = 0	0.419	0.371	0.337	0.311
x1 = 0.01114, x3 = 0.004127	0.436	0.393	0.359	0.33
x1 = 0.01158, x3 = 0.008037	0.454	0.411	0.375	0.345
x1 = 0.01173, x2 = 0.9767	0.458	0.416	0.396	0.364
x1 = 0.01219, x3 = 0	0.422	0.375	0.34	0.314
x1 = 0.0126, x3 = 0.004121	0.44	0.396	0.362	0.333
x1 = 0.01261, x2 = 0.9794	0.458	0.414	0.378	0.348
x1 = 0.01337, x2 = 0.9751	0.462	0.42	0.4	0.368

Source: the CheMixHub ionic liquid set
